Experimental data published in US20020137929A1, “1 - (3-heterocyclylphenyl) isothiourea, -isourea, -guanidine and -amidine herbicidal agents” (Intellectual Property Department, BASF Aktiengesellschaft, priority 1998, published 2002).

What was measured:
[1] = test system: ABUTH (Velvetleaf); experiment: Postemergence herbicidal evaluation; type: in vivo, Abutilon theophrasti; details: postemergence
Outline: (§1)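 Scores (0–9) reflect plant stand, vigor, malformation, size, chlorosis and general appearance relative to control, read 4 to 5 weeks after treatment and averaged where tests were repeated. Application: about 0.0156–0.500 kg/ha sprayed at 40 psi onto two-week seedlings.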

[2] = test system: AMBEL (Ragweed, Common); experiment: Postemergence herbicidal evaluation; type: in vivo, Ambrosia artemisifolia; details: postemergence
Outline: as §1

[3] = test system: ECHCG (Barnyardgrass); experiment: Postemergence herbicidal evaluation; type: in vivo, Echinochloa crus-galli; details: postemergence
Outline: as §1

[4] = test system: SETVI (Foxtail, Green); experiment: Postemergence herbicidal evaluation; type: in vivo, Setaria viridis; details: postemergence
Outline: as §1

[5] = test system: GLXMAW (Soybean, Williams); experiment: Postemergence herbicidal evaluation; type: in vivo, Glycine max, (L.) Merr. cv Williams; details: postemergence
Outline: as §1

[6] = test system: ORYSAT (Rice, Tebonnet); experiment: Postemergence herbicidal evaluation; type: in vivo, Oryza sativa, (L.) Tebonnet; details: postemergence
Outline: as §1

[7] = test system: TRZAWR (Wheat, Winter, cv Riband); experiment: Postemergence herbicidal evaluation; type: in vivo, Triticum aestivum; details: postemergence
Outline: as §1

[8] = test system: ABUTH (Velvetleaf); experiment: Preemergence herbicidal evaluation; type: in vivo, Abutilon theophrasti; details: rated 4-5 weeks after treatment
Outline: (§2)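 In this greenhouse assay, monocot and dicot seeds are planted in soil and treated prior to emergence with an aqueous acetone spray (about 0.0156-0.500 kg/ha). Plants are assessed visually against control on a 0-9 scale after 4-5 weeks.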

[9] = test system: CASOB (Sicklepod); experiment: Preemergence herbicidal evaluation; type: in vivo, Cassia obtusifolia; details: rated 4-5 weeks after treatment
Outline: as §2

[10] = test system: SETVI (Foxtail, Green); experiment: Preemergence herbicidal evaluation; type: in vivo, Setaria viridis; details: rated 4-5 weeks after treatment
Outline: as §2

[11] = test system: MOOVA (Monochoria); experiment: Preemergence weed control under flooded paddy conditions; type: in vivo, Monochoria vaginalis; details: rated 3-4 weeks after treatment
Outline: (§3)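 Ratings on a 0-9 visual scale cover stand, vigor, malformation, size, chlorosis and overall appearance relative to a control, taken three to four weeks post-treatment. Application was into flood water over freshly sown silt loam at roughly 0.0313 to 0.500 kg/ha.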

[12] = test system: SAGPY (Arrowhead (Pygmaea)); experiment: as above; type: in vivo, Sagittaria pygmaea; details: rated 3-4 weeks after treatment
Outline: as §3

[13] = rate 0.0625 kg/ha, rating scale 0-9
[14] = rate 0.1250 kg/ha, rating scale 0-9
[15] = rate 0.2500 kg/ha, rating scale 0-9

CCOC(=O)CN1C(=O)C(C(=O)OC)SC1=Nc1cc(-n2c(=O)cc(C(F)(F)F)n(C)c2=O)c(F)cc1Cl (stereo not drawn) [Compound 128, 5-Carboxy-2-{{2-chloro-5-[3,6-dihydro-3-methyl-2,6-dioxo-4-(trifluoromethyl)-1(2H)-pyrimidinyl]-4-fluorophenyl}imino}-4-oxo-3-thiazolidineacetic acid, 3-ethyl methyl ester]
3.5: Herbicidal rating TRZAWR ([7]; rate 0.0625 kg/ha)
0.0: Preemergence herbicidal rating ABUTH ([8]; rate 0.0156 kg/ha) | Preemergence herbicidal rating ABUTH ([8]; rate 0.0313 kg/ha) | Preemergence herbicidal rating CASOB ([9]; rate 0.0156 kg/ha) | Preemergence herbicidal rating CASOB ([9]; rate 0.2500 kg/ha) | Preemergence herbicidal rating SETVI ([10]; rate 0.0156 kg/ha) | herbicidal effect rating, SAGPY ([12]; 0.0313 kg/ha)
1.0: Herbicidal rating ECHCG ([3]; rate 0.0156 kg/ha) | Herbicidal rating ECHCG ([3]; rate 0.0625 kg/ha) | Herbicidal rating SETVI ([4]; rate 0.0156 kg/ha) | Herbicidal rating SETVI ([4]; rate 0.0313 kg/ha) | Preemergence herbicidal rating ABUTH ([8]; rate 0.0625 kg/ha) | Preemergence herbicidal rating CASOB ([9]; rate 0.0313 kg/ha) | Preemergence herbicidal rating CASOB ([9]; rate 0.0625 kg/ha) | Preemergence herbicidal rating SETVI ([10]; rate 0.0313 kg/ha) | Preemergence herbicidal rating SETVI ([10]; rate 0.1250 kg/ha)
6.0: Herbicidal rating ABUTH ([1]; rate 0.0156 kg/ha) | Herbicidal rating GLXMAW ([5]; rate 0.0625 kg/ha) | herbicidal effect rating, MOOVA ([11]; 0.0313 kg/ha) | herbicidal effect rating, SAGPY ([12]; 0.2500 kg/ha)
9.0: Herbicidal rating ABUTH ([1]; rate 0.0313 kg/ha) | Herbicidal rating ABUTH ([1]; rate 0.0625 kg/ha) | Herbicidal rating AMBEL ([2]; rate 0.0313 kg/ha) | Herbicidal rating AMBEL ([2]; rate 0.0625 kg/ha) | Preemergence herbicidal rating ABUTH ([8]; rate 0.2500 kg/ha) | herbicidal effect rating, MOOVA ([11]; 0.1250 kg/ha) | herbicidal effect rating, MOOVA ([11]; 0.2500 kg/ha)
2.0: Herbicidal rating ECHCG ([3]; rate 0.0313 kg/ha) | Herbicidal rating ORYSAT ([6]; rate 0.0313 kg/ha) | Herbicidal rating TRZAWR ([7]; rate 0.0156 kg/ha)
4.5: Herbicidal rating GLXMAW ([5]; rate 0.0156 kg/ha) | Herbicidal rating GLXMAW ([5]; rate 0.0313 kg/ha)
2.5: Herbicidal rating ORYSAT ([6]; rate 0.0625 kg/ha)
3.0: Herbicidal rating TRZAWR ([7]; rate 0.0313 kg/ha) | Preemergence herbicidal rating ABUTH ([8]; rate 0.1250 kg/ha) | herbicidal effect rating, SAGPY ([12]; 0.0625 kg/ha)
7.0: Herbicidal rating AMBEL ([2]; rate 0.0156 kg/ha) | Preemergence herbicidal rating SETVI ([10]; rate 0.2500 kg/ha) | herbicidal effect rating, MOOVA ([11]; 0.0625 kg/ha)
4.0: Herbicidal rating SETVI ([4]; rate 0.0625 kg/ha) | herbicidal effect rating, SAGPY ([12]; 0.1250 kg/ha)
1.5: Herbicidal rating ORYSAT ([6]; rate 0.0156 kg/ha)

COc1cc(CN2C(=O)CSC2=Nc2cc(-n3c(=O)cc(C(F)(F)F)n(C)c3=O)c(F)cc2Cl)cc(OC)c1OC [Compound 140, 3-{4-Chloro-2-fluoro-5-{[3-(3,4,5-trimethoxybenzyl)-4-oxo-2-thiazolidinylidene]amino}phenyl}-1-methyl-6-(trifluoromethyl)-2,4(1H,3H)-pyrimidinedione]
7.0: Preemergence herbicidal rating ABUTH [8, 15] | herbicidal effect rating, MOOVA ([11]; 0.0625 kg/ha)
1.5: Herbicidal rating ORYSAT ([6]; rate 0.0625 kg/ha)
3.5: Herbicidal rating GLXMAW ([5]; rate 0.0156 kg/ha) | Herbicidal rating TRZAWR ([7]; rate 0.0313 kg/ha)
2.0: Herbicidal rating AMBEL ([2]; rate 0.0156 kg/ha) | Herbicidal rating AMBEL ([2]; rate 0.0313 kg/ha) | herbicidal effect rating, SAGPY ([12]; 0.0313 kg/ha)
3.0: Preemergence herbicidal rating ABUTH [8, 14] | herbicidal effect rating, SAGPY ([12]; 0.0625 kg/ha)
0.5: Herbicidal rating ORYSAT ([6]; rate 0.0156 kg/ha) | Herbicidal rating ORYSAT ([6]; rate 0.0313 kg/ha)
5.5: Herbicidal rating GLXMAW ([5]; rate 0.0625 kg/ha)
9.0: Herbicidal rating ABUTH ([1]; rate 0.0625 kg/ha) | herbicidal effect rating, MOOVA ([11]; 0.1250 kg/ha) | herbicidal effect rating, MOOVA ([11]; 0.2500 kg/ha)
4.0: Herbicidal rating ABUTH ([1]; rate 0.0156 kg/ha) | Herbicidal rating ABUTH ([1]; rate 0.0313 kg/ha) | Herbicidal rating AMBEL ([2]; rate 0.0625 kg/ha) | Herbicidal rating TRZAWR ([7]; rate 0.0625 kg/ha) | herbicidal effect rating, MOOVA ([11]; 0.0313 kg/ha) | herbicidal effect rating, SAGPY ([12]; 0.1250 kg/ha) | herbicidal effect rating, SAGPY ([12]; 0.2500 kg/ha)
4.5: Herbicidal rating GLXMAW ([5]; rate 0.0313 kg/ha)
2.5: Herbicidal rating TRZAWR ([7]; rate 0.0156 kg/ha)
0.0: Herbicidal rating ECHCG ([3]; rate 0.0156 kg/ha) | Herbicidal rating ECHCG ([3]; rate 0.0313 kg/ha) | Herbicidal rating ECHCG ([3]; rate 0.0625 kg/ha) | Herbicidal rating SETVI ([4]; rate 0.0156 kg/ha) | Herbicidal rating SETVI ([4]; rate 0.0313 kg/ha) | Herbicidal rating SETVI ([4]; rate 0.0625 kg/ha) | Preemergence herbicidal rating ABUTH [8, 13] | Preemergence herbicidal rating CASOB [9, 13] | Preemergence herbicidal rating CASOB [9, 14] | Preemergence herbicidal rating CASOB [9, 15] | Preemergence herbicidal rating SETVI [10, 13] | Preemergence herbicidal rating SETVI [10, 14] | Preemergence herbicidal rating SETVI [10, 15]

Cn1c(C(F)(F)F)cc(=O)n(-c2cc(N=C3SCC(=O)N3Cc3cccnc3)c(Cl)cc2F)c1=O [Compound 132, 3-{4-Chloro-2-fluoro-5-{[4-oxo-3-(3-pyridylmethyl)-2-thiazolidinylidene]amino}phenyl}-1-methyl-6-(trifluoromethyl)-2,4 (1H,3H)-pyrimidinedione]
5.0: Herbicidal rating AMBEL ([2]; rate 0.0156 kg/ha) | Herbicidal rating GLXMAW ([5]; rate 0.0156 kg/ha) | Herbicidal rating GLXMAW ([5]; rate 0.0313 kg/ha)
0.0: Preemergence herbicidal rating CASOB [9, 13] | Preemergence herbicidal rating CASOB [9, 15] | Preemergence herbicidal rating SETVI [10, 13] | herbicidal effect rating, SAGPY ([12]; 0.0313 kg/ha) | herbicidal effect rating, SAGPY ([12]; 0.0625 kg/ha) | herbicidal effect rating, SAGPY ([12]; 0.1250 kg/ha) | herbicidal effect rating, SAGPY ([12]; 0.2500 kg/ha)
4.0: Herbicidal rating SETVI ([4]; rate 0.0313 kg/ha) | Herbicidal rating TRZAWR ([7]; rate 0.0625 kg/ha)
1.0: Herbicidal rating ECHCG ([3]; rate 0.0156 kg/ha) | Herbicidal rating SETVI ([4]; rate 0.0156 kg/ha)
2.0: Herbicidal rating ECHCG ([3]; rate 0.0313 kg/ha) | Herbicidal rating ECHCG ([3]; rate 0.0625 kg/ha) | Herbicidal rating ORYSAT ([6]; rate 0.0156 kg/ha)
3.0: Herbicidal rating SETVI ([4]; rate 0.0625 kg/ha) | Herbicidal rating ORYSAT ([6]; rate 0.0313 kg/ha) | Herbicidal rating TRZAWR ([7]; rate 0.0156 kg/ha) | Preemergence herbicidal rating SETVI [10, 14]
3.5: Herbicidal rating ORYSAT ([6]; rate 0.0625 kg/ha) | Herbicidal rating TRZAWR ([7]; rate 0.0313 kg/ha)
6.0: Herbicidal rating GLXMAW ([5]; rate 0.0625 kg/ha) | herbicidal effect rating, MOOVA ([11]; 0.0313 kg/ha)
9.0: Herbicidal rating ABUTH ([1]; rate 0.0156 kg/ha) | Herbicidal rating ABUTH ([1]; rate 0.0313 kg/ha) | Herbicidal rating ABUTH ([1]; rate 0.0625 kg/ha) | Herbicidal rating AMBEL ([2]; rate 0.0313 kg/ha) | Herbicidal rating AMBEL ([2]; rate 0.0625 kg/ha) | Preemergence herbicidal rating ABUTH [8, 13] | Preemergence herbicidal rating ABUTH [8, 14] | Preemergence herbicidal rating ABUTH [8, 15] | Preemergence herbicidal rating SETVI [10, 15] | herbicidal effect rating, MOOVA ([11]; 0.0625 kg/ha) | herbicidal effect rating, MOOVA ([11]; 0.1250 kg/ha) | herbicidal effect rating, MOOVA ([11]; 0.2500 kg/ha)
